# Values joined by “and” are separate entries in the source; they are usually repeats but may differ in a detail not shown here. Identical values can stand only once. “Also recorded” adds a separate entry of the source.
# Assays:
# CYP3A4 [1] = biological target: T1, CYP3A4 (Homo sapiens, UniProt P08684); conditions: for AUC0-tz, Ratio of Geometric LSMs (%) / AUCinf, Ratio of Geometric LSMs (%) / Cmax, Ratio of Geometric LSMs (%): 100 * Test/Reference, midazolam with 350 mg relacorilant (Day 14) vs midazolam alone (Day 1)
# T1 sequence (P08684 whole entry): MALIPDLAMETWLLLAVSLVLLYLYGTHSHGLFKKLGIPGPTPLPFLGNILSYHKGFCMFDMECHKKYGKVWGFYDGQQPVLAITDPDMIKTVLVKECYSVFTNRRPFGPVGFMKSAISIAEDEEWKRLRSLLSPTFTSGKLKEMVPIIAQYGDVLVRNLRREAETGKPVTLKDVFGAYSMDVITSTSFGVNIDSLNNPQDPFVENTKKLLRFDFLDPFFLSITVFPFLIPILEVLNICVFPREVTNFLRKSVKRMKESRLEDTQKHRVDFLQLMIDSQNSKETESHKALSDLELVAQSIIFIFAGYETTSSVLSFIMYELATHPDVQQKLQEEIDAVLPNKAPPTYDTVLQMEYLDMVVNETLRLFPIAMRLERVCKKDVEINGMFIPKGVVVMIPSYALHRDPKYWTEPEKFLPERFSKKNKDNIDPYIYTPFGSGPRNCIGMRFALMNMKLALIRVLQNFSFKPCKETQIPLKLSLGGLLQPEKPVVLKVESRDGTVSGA
# Protocol: (§1) An open-label, crossover study was conducted in healthy subjects to determine the effect of relacorilant on the plasma exposure of midazolam, a known substrate of CYP3A4, and pioglitazone, a known substrate of CYP2C8. A single dose of midazolam 2.5 mg was administered alone and intensive pharmacokinetic (PK) samples were collected before dosing (0 hour) and at 0.25, 0.5, 1, 1.5, 2, 4, 6, 8, 12, 16, and 24 hours post-dose. […] Relacorilant 350 mg was then administered once a day for 9 consecutive days. On the tenth day of once-daily relacorilant dosing, a single dose of midazolam 2.5 mg was administered in combination with relacorilant 350 mg and intensive PK samples were again collected at pre-dose though 24 hours post-dose.
# CYP3A4 [2] = biological target: T1, CYP3A4; assay: clinical; conditions: in vivo, po, 2.5 mg
# Protocol: as §1
# CYP2C8 [3] = biological target: T2, CYP2C8 (Homo sapiens, UniProt P10632); assay: Clinical drug-drug interaction study in healthy volunteers: effect of relacorilant on plasma pioglitazone (CYP2C8 substrate)
# T2 sequence (P10632 1-490): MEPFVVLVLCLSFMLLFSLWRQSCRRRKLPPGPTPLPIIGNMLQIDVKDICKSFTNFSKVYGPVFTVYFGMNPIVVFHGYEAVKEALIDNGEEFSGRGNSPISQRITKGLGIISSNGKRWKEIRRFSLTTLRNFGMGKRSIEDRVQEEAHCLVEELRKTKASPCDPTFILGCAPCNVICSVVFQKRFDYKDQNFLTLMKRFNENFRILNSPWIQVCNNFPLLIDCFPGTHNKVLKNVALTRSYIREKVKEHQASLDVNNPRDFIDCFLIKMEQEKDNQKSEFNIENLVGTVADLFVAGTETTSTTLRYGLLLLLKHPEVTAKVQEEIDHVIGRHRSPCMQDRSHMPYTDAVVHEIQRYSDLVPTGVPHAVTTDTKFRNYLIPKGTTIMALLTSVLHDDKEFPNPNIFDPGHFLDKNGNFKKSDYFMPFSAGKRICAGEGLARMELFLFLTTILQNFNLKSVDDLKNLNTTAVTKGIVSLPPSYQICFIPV
# Protocol: An open-label, crossover study was conducted in healthy subjects to determine the effect of relacorilant on the plasma exposure of midazolam, a known substrate of CYP3A4, and pioglitazone, a known substrate of CYP2C8. A single dose of midazolam 2.5 mg was administered alone and intensive pharmacokinetic (PK) samples were collected before dosing (0 hour) and at 0.25, 0.5, 1, 1.5, 2, 4, 6, 8, 12, 16, and 24 hours post-dose. On the following day, a single dose of 15 mg of pioglitazone was administered alone and intensive PK samples were collected before dosing (0 hour) and at 0.5, 1, 1.5, 2, 2.5, 3, 4, 6, 8, 12, 18, 24, 36, 48, 60, and 72 hours post-dose. Relacorilant 350 mg was then administered once a day for 9 consecutive days. On the tenth day of once-daily relacorilant dosing, a single dose of midazolam 2.5 mg was administered in combination with relacorilant 350 mg and intensive PK samples were again collected at pre-dose though 24 hours post-dose. On the following day, a single dose of 15 mg of pioglitazone was administered in combination with relacorilant 350 mg and intensive pharmacokinetic (PK) samples were again collected at pre-dose through 72 hours post-dose. The plasma concentrations of midazolam and its metabolite, 1-OH midazolam, and pioglitazone and its metabolite, pioglitazone M4 were evaluated by validated bioanalytical assays on each of dosing occasions of midazolam or pioglitazone.
# [4] = Pharmacokinetics of nab-paclitaxel alone or with relacorilant in patients with advanced solid tumors (Study CORT125134-550); type: in vivo, human; conditions: cancer patients; same dose administered alone as comparison
# Description: The combination of relacorilant and nab-paclitaxel has been evaluated in patients with advanced solid tumors.
# CYP2C8 [5] = biological target: T2, CYP2C8; assay: In vitro CYP inhibition assay, Assay 1 (3-CYP mix); type: in vitro ADME; parameters: from tissue; host or cells: healthy human subjects, in vivo (endogenous enzyme); conditions: CYP2C8 expressed in E. coli, substrate amodiaquine, 10 min incubation, 37° C., pH 7.4
# Protocol: Cytochrome P450 (CYP) isoforms CYP2B6, CYP2C8 and CYP3A5, heterologously expressed in E. coli, were obtained from Cypex and mixed to produce a 3-CYP mix. […] A selective and FDA accepted substrate for each isoform was present in the reaction at a concentration around its Km.
# (§2) The CYP mix and a CYP substrate cocktail were added and the tubes warmed for 3 minutes whilst mixing on a BioShake IQ (37° C., 1500 rpm). NADPH (final concentration 1 mM) was added and the mixture was incubated for 10 minutes. Methanol containing an internal standard (1 μM tolbutamide) was then added to all samples, and these were mixed and placed at −20° C. for ≥1 hour to quench the reaction and allow protein to precipitate.
# All samples were centrifuged (2500×g, 20 minutes, 4° C.). The supernatants were transferred to a fresh 96 well plate, compatible with an autosampler. The plate was sealed with a pre-slit silicone mat and the metabolites were analyzed by LC-MS/MS.
# Control CYP inhibitors (IC50—appropriate concentration range, final assay concentration 1% DMSO) were added as a cocktail. […]
# In Assay 1, the final concentration of the 3-CYP mix was 18 pmol/mL for CYP2B6 (where pmol is picomoles), 1 pmol/mL for CYP2C and 5 pmol/mL for CYP3A5. […] The metabolites measured were: CYP2B6, hydroxybupropion; CYP2C8, N-desethyl amodiaquine; CYP3A5, 1′-hydroxymidazolam. […]
# CYP3A4 [6] = biological target: T1, CYP3A4; assay: In vitro CYP inhibition assay, Assay 2 (5-CYP mix); type: in vitro ADME; parameters: from tissue; host or cells: healthy human subjects, in vivo (endogenous enzyme); conditions: CYP3A4 expressed in E. coli, substrate midazolam, 10 min incubation, 37° C., pH 7.4
# Protocol: In a separate assay, isoforms for CYP1A2, CYP2C9, CYP2C19, CYP2D6, and CYP3A4 heterologously expressed in E. coli and obtained from Cypex as a custom made mixture of 5 isoforms. A selective and FDA accepted substrate for each isoform was present in the reaction at a concentration around its Km.
# as §2
# All samples were centrifuged (2500×g, 20 minutes, 4° C.). […] The plate was sealed with a pre-slit silicone mat and the metabolites were analyzed by LC-MS/MS. […]
# In Assay 2, the final concentration of the 5-CYP mix was 32.5 pmol/ml for each of the enzymes evaluated (i.e., CYP1A2, CYP2C9, CYP2C19, CYP2D6, and CYP3A4). […]
# In Assay 2, the CYP substrate cocktail comprised the following components: CYP1A2, tacrine; CYP2C9, diclofenac; CYP2C19, (S)mephenytoin; CYP2D6, bufuralol; CYP3A4, midazolam. The metabolites measured were: CYP1A2, 1-hydroxytacrine; CYP2C9, 4′-hydroxydiclofenac; CYP2C19, 4′-hydroxymephenytoin; CYP2D6, hydroxybufuralol; CYP3A4, 1′-hydroxymidazolam. […]
# [7] = plasma, healthy subjects, single oral 2.5 mg midazolam hydrochloride alone, Day 1
# [8] = plasma, healthy subjects, single oral 2.5 mg midazolam hydrochloride with 350 mg relacorilant, Day 14
# [9] = 100 * Test/Reference, pioglitazone with 350 mg relacorilant (Day 15) vs pioglitazone alone (Day 2)
smiles,measurement,setting,value
OCc1ncc2n1-c1ccc(Cl)cc1C(c1ccccc1F)=NC2 [1-OH midazolam],"AUC0-tz, Ratio of Geometric LSMs (%)",CYP3A4 [1],796.64%
same,"AUCinf, Ratio of Geometric LSMs (%)",CYP3A4 [1],814.51%
same,"Cmax, Ratio of Geometric LSMs (%)",CYP3A4 [1],164.86%
same,"AUC0-tz, Geometric LSM, Reference (Day 1) Treatment A",CYP3A4 [1]; [7],9.360 ng·h/mL
same,"AUCinf, Geometric LSM, Reference (Day 1) Treatment A",CYP3A4 [1]; [7],10.28 ng·h/mL
same,"Cmax, Geometric LSM, Reference (Day 1) Treatment A",CYP3A4 [1]; [7],4.038 ng/mL
same,"AUC0-tz, Geometric LSM, Test (Day 14) Treatment D",CYP3A4 [1]; [8],74.56 ng·h/mL
same,"AUCinf, Geometric LSM, Test (Day 14) Treatment D",CYP3A4 [1]; [8],83.72 ng·h/mL
same,"Cmax, Geometric LSM, Test (Day 14) Treatment D",CYP3A4 [1]; [8],6.657 ng/mL
"Cc1ncc2n1-c1ccc(Cl)cc1C(c1ccccc1F)=NC2 [Midazolam, midazolam]","AUC0-tz, Ratio of Geometric LSMs (%)",CYP3A4 [1],878.43%
same,"AUCinf, Ratio of Geometric LSMs (%)",CYP3A4 [1],892.81%
same,"Cmax, Ratio of Geometric LSMs (%)",CYP3A4 [1],310.98%
same,"increase in plasma exposure (AUCinf) when administered with relacorilant, relative to midazolam alone","CYP3A4 [1]; healthy subjects, once daily relacorilant 350 mg",8 fold and > 8 fold
same,AUC(0-inf),CYP3A4 [2],33 ng·h/mL
same,AUC(0-t),CYP3A4 [2],30.9 ng·h/mL
same,Cmax,CYP3A4 [2],11.8 ng/mL
CC(O)c1ccc(CCOc2ccc(CC3SC(=O)NC3=O)cc2)nc1 (stereo not drawn) [Pioglitazone M4],"AUC0-tz, Geometric LSM, Reference (Day 2) Treatment B","CYP2C8 [3]; human, in vivo, po, 15 mg",10460 ng·h/mL
same,"AUCinf, Geometric LSM, Reference (Day 2) Treatment B","CYP2C8 [3]; human, in vivo, po, 15 mg",12890 ng·h/mL
same,"Cmax, Geometric LSM, Reference (Day 2) Treatment B","CYP2C8 [3]; human, in vivo, po, 15 mg",237.3 ng/mL
"CCc1ccc(CCOc2ccc(CC3SC(=O)NC3=O)cc2)nc1 (stereo not drawn) [Pioglitazone, pioglitazone]","AUC0-tz, Ratio of Geometric LSMs (%)",CYP2C8 [3]; [9],74.71%
same,"AUCinf, Ratio of Geometric LSMs (%)",CYP2C8 [3]; [9],74.83%
same,"Cmax, Ratio of Geometric LSMs (%)",CYP2C8 [3]; [9],77.82%
same,change in plasma exposure/concentration when administered with relacorilant,"CYP2C8 [3]; healthy volunteers, once daily relacorilant 350 mg, pioglitazone 15 mg",no increase; also recorded: did not increase
same,AUC(0-inf),"CYP2C8 [3]; human, plasma, po, 15 mg",5410 ng·h/mL
same,AUC(0-t),"CYP2C8 [3]; human, plasma, po, 15 mg",5290 ng·h/mL
same,Cmax,"CYP2C8 [3]; human, plasma, po, 15 mg",484 ng/mL
CC(=O)O[C@H]1C(=O)[C@@]2(C)[C@H]([C@H](OC(=O)c3ccccc3)[C@]3(O)C[C@H](OC(=O)[C@H](O)[C@@H](NC(=O)c4ccccc4)c4ccccc4)C(C)=C1C3(C)C)[C@]1(OC(C)=O)CO[C@@H]1C[C@@H]2O [paclitaxel],"increase in plasma levels/exposure (AUC) when co-administered with relacorilant, relative to alone",[4],about 80%
"Cn1cc(S(=O)(=O)N2CCC3=Cc4c(cnn4-c4ccc(F)cc4)C[C@]3(C(=O)c3cc(C(F)(F)F)ccn3)C2)cn1 [relacorilant, (R)-(1-(4-fluorophenyl)-6-((1-methyl-1H-pyrazol-4-yl)sulfonyl)-4,4a,5,6,7,8-hexahydro-1H-pyrazolo[3,4-g]isoquinolin-4a-yl)(4-(trifluoromethyl)pyridine-2-yl)methanone]",inhibition of CYP2C8 in vivo,"CYP2C8 [3]; healthy subjects, once daily relacorilant 350 mg, probe pioglitazone",does not inhibit
same,IC50,CYP2C8 [5],0.21 µM
same,IC50,CYP3A4 [6],1.32 µM
